Results on 13 compounds are retold here after patent US20040038855A1 (priority 1999, published 2004).

The target in data set [1] is T1, rat 5HT2C receptor (Rattus norvegicus, UniProt P08909).
T1 construct: expressed in transfected cells
T1 sequence (P08909 33-460): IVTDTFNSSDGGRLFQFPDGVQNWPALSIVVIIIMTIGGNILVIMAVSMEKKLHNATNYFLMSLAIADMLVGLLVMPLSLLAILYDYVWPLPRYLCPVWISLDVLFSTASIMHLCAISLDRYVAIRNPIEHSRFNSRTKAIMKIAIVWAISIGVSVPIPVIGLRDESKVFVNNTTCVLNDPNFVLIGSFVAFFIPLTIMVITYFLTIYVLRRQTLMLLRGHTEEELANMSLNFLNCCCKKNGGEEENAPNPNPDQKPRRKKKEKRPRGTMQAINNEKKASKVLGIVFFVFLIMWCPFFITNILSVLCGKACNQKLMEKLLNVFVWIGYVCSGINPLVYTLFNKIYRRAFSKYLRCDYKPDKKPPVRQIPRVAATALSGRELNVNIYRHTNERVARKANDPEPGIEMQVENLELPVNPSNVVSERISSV
Briefly: Binding affinity at the rat 5HT2C receptor. The following applies: read-out: r5HT2C Ki. From the text: (§1) The design of such compounds can be optimized by determining their binding affinity at the recombinant MCH1, NPY1, NPY2, Gal1, Gal2, Gal3, and 5HT2C receptors. The methods to obtain the cDNA of the receptor, express said receptors in heterologous systems, and carry out assays to determine binding affinity are described in the following publications: human NPY1 (Larhammar et al., 1992), human NPY5 (U.S. Pat. No. 5,602,024, the disclosure of which is hereby incorporated by reference in its entirety into this application), human Gall (Habert-Ortoli et al., 1994), human Gal2 (Smith et al., 1997), human Gal3 (Smith et al., 1998), and rat 5HT2C (Julius et al., 1988). Additionally, the compounds would optimally not bind at the following receptors due to possible side effects: human H1 histamine and human H2 histamine receptors; human alpha-1A adrenergic, human alpha-1D adrenergic, human alpha-2A adrenergic, human alpha-2B adrenergic, and human alpha-2C adrenergic receptors; human dopamine D1, D2, D3, D4, and D5 receptors; the β-adrenoceptor; and the human 5HT1A, human 5HT1B, human 5HT1D, human 5HT1E, human 5HT1F, human 5HT2A, rat 5HT2C, human 5HT4, human 5HT6, and human 5HT7 receptors.
Other 5HT Receptors: Other serotonin receptor binding assays were performed according to published methods: rat 5HT2C receptor (Julius et al., 1988); and 5HT6 (Monsma, et al., 1993). The binding assays using the 5HT4 receptor were performed according to the procedures described in U.S. Pat. No. 5,766,879, the disclosure of which is hereby incorporated by reference in its entirety into this application.

In data set [2] the target is T2, human GALR1 receptor (Homo sapiens, UniProt P47211).
T2 construct: expressed in transfected cells
T2 sequence (P47211 1-349): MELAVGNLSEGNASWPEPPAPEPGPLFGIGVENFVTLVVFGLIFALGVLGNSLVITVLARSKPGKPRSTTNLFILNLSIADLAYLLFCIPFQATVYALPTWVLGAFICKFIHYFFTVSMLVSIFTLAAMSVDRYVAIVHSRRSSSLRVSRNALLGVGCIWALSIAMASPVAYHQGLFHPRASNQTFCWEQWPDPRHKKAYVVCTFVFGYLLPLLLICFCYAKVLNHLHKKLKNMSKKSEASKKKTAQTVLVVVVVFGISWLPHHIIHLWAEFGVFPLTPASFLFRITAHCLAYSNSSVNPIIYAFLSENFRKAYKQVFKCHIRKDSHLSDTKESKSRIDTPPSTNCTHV
Put plainly: Binding affinity at the human GALR1 receptor. The following applies: read-out: hGALR1 Ki.
Source text: as §1

Data set [3] has as its target T3, human MCH1 receptor (Homo sapiens, UniProt Q99705). Put plainly: Competition binding, membrane preparations of A293 cells expressing the human MCH1 receptor, [3H] Compound 10 as radioligand. The following applies: Table 3b; A293 cell membranes, [3H] Compound 10; read-out: hMCH1* Ki. Set-up: expressed in transfected cells. The method, then: TRITIATED METHYL (4S)-3-{[(3-{4-[3-(ACETYLAMINO)PHENYL]-1-[…]}PROPYL)AMINO]CARBONYL}-4-(3,4-DIFLUOROPHENYL)-6-(METHOXYMETHYL)-2-OXO-1,2,3,4-TETRAHYDRO-5-PYRIMIDINECARBOXYLATE ([^3H] COMPOUND 10): This radiochemical synthesis was carried out by Amersham Pharmacia Biotech, Cardiff, Wales. A methanolic solution of methyl (4S)-3-({[3-(4-[3-(acetylamino)phenyl]-3,6-dihydro-1(2H)pyridinyl)propyl]amino}carbonyl)-4-(3,4-difluorophenyl)-6-(methoxymethyl)-2-oxo-1,2,3,4-tetrahydro-5-pyrimidinecarboxylate was exposed to tritium gas at 1 atmosphere pressure in the presence of 5% palladium on carbon with stirring overnight to give the tritiated methyl (4S)-3-{[(3-{4-[3-(acetylamino)phenyl]-1-piperidinyl}propyl)amino]carbonyl}-4-(3,4-difluorophenyl)-6-(methoxymethyl)-2-oxo-1,2,3,4-tetrahydro-5-pyrimidinecarboxylate ((+)-isomer) After purification by reverse phase HPLC (Hypersil ODS, 4.6×100 mm, methanol:H2O:Et3N 10:90:1 to 100:0:1 in 15 min at 1.0 mL/min, with radiochemical and UV detection), this product was used as a radioligand in the MCH1 binding assays. The same procedure was carried out with H2 gas in place of ^3H2 to afford the non-radioactive version of Compound 10.

The target in data set [4] is T4, human GALR3 receptor (Homo sapiens, UniProt O60755).
T4 construct: expressed in transfected cells
T4 sequence (O60755 1-368): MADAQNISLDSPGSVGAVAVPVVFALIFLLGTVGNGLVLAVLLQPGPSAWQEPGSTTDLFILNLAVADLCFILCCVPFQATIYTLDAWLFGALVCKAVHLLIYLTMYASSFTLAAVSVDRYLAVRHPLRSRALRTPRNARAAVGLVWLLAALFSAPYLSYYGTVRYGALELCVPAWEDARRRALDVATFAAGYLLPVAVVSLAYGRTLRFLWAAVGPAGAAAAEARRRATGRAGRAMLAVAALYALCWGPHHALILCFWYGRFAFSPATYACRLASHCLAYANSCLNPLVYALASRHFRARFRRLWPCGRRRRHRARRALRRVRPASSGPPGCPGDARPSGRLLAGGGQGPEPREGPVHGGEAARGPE
Briefly: Binding affinity at the human GALR3 receptor. The following applies: read-out: hGALR3 Ki.
Source text: as §1

In data set [5] the target is T5, human GALR2 receptor (Homo sapiens, UniProt O43603).
T5 construct: expressed in transfected cells
T5 sequence (O43603 1-387): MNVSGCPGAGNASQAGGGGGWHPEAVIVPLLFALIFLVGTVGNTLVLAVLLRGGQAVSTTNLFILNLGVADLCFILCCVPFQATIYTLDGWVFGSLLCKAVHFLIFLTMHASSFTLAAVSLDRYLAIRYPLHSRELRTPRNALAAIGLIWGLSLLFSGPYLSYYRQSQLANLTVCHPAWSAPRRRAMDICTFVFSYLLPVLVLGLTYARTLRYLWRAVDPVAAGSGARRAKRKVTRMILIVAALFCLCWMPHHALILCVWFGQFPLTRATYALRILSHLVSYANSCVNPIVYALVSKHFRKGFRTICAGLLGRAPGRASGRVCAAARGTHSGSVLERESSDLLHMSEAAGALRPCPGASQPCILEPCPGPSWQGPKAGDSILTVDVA
Put plainly: Binding affinity at the human GALR2 receptor. The following applies: read-out: hGALR2 Ki.
Source text: as §1

In data set [6] the target is T3, human MCH1 receptor. Briefly: Intracellular calcium response to MCH in COS-7 cells transfected with MCH1 (fluo-3, FLIPR): antagonist potency. The class given is cell-based. More on the design: expressed in transfected cells; host or cells: COS-7. The following applies: read-out: Kb (nM) hMCH1. The source says: MCH1 antagonist compounds were identified by their ability to inhibit the MCH-elicited response. […]. From the IC50 values, the antagonist potency (Kb)was derived using the Cheng-Prussof correction (Lazareno and Birdsall, 1993). […]

Structures can show the parent of a compound that is named as a salt. Where two headings read alike, the source gives them in different places. Where only a bound is given, the exact number is not on record here.

The Ki is a dissociation constant, usually derived from enzyme kinetics or from competition with a known ligand. As a reminder, the melting point is the temperature, or range, at which the solid turns liquid. By Kb is commonly meant the equilibrium dissociation constant of an antagonist, usually derived from a functional assay.

T3 sequence (Q99705 whole entry): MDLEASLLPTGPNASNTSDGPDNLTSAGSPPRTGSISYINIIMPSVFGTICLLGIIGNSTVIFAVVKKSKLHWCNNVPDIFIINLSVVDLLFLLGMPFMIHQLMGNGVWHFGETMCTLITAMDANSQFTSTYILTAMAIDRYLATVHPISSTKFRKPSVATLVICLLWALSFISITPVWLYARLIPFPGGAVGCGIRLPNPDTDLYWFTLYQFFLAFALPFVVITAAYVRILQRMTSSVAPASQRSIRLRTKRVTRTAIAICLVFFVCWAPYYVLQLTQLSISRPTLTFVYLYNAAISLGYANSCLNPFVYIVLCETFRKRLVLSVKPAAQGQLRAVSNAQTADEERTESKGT

For the compound `COCC1=C(C(=O)OC)C(c2ccc(F)c(F)c2)N(C(=O)NCCCN2CC=C(c3cccc(NC(C)=O)c3)CC2)C(=O)N1` (stereo not drawn) [Example 2, METHYL 3-[(3-4-[3-(ACETYLAMINO)PHENYL]-1,2,3,6-TETRAHYDRO-1-PYR-IDINYLPROPYL)AMINO]CARBONYL-4-(3,4-DIFLUOROPHENYL)-6-(METHOXY-METHYL)-2-OXO-1,2,3,4-TETRAHYDRO-5-PYRIMIDINECARBOXYLATE], the Ki is 39800 nM in data set [1] (Table 3a); 39800 nM in data set [1] (Table 3b); over 50000 nM in data set [2] (Table 3a); over 50000 nM in data set [2] (Table 3b); 49 nM in data set [3]; over 50000 nM in data set [4] (Table 3a). Besides, the inhibition constant Ki in data set [4] (Table 3b), in data set [5] (Table 3a) and in data set [5] (Table 3b) was over 50000 nM each time.

`O=C(NC1CCN(CCC2CCc3ccccc3C2=O)CC1)c1ccccc1` (stereo not drawn) [Example 5] showed a melting point of 158 to 159 °C.

For `CCn1c(=O)n(C2CCN(CCCNC(=O)N3C(=O)NC(C)=C(C(=O)OC)C3c3ccc(F)c(F)c3)CC2)c2ccccc21` (single isomer, unassigned; (+)) [Example 7, (+)-1,2,3,6-TETRAHYDRO-1-{N-[4-(N′-ETHYL)-N-BENZIMIDAZOLYL-PIPERIDIN-1YL]PROPYL}CARBOXAMIDO-4-METHYL-6-(3,4-DIFLUOROPHENYL)-2-OXOPYRIMIDINE HYDROCHLORIDE], in data set [6], the Kb is 41 nM. Turning to `COC(=O)C1=C(C)NC(=O)N(C(=O)NCCCN2CCN(c3ccccc3[N+](=O)[O-])C[C@@H]2C)C1c1ccc(F)c(F)c1` (single isomer, unassigned; (+)) (as salt: HCl) [Example 34], the melting point fell in the range of 150 to 153 °C. For the compound `CC(=O)C1=C(C)NC(=O)N(C(=O)NCCCN2CCC(c3ccc(F)cc3)CC2)C1c1cc(F)c(F)c(F)c1` (single isomer, unassigned; (+)) [Example 12, (+)-1,2,3,6-TETRA HYDRO-1-{N-[4-(4-FLUOROPHENYL)-PIPERIDINE-1-YL]-PROPYL]CARBOXAMIDO-5-ACETYL-2-OXO-6-(3,4,5-TRI FLUORO PHENYL)-4-METHYL PYRIMIDINE HYDROCHLORIDE], in data set [6], the Kb is 29 nM. `O=C(CCCN1CCC(NC(=O)c2ccccc2)CC1)c1ccc(Cl)cc1` (as salt: HCl) [Example 28, [3-(4-CHLOROBENZOYL)]PROPYL-4-BENZAMIDOPIPERIDINE] yielded a melting point of 243 to 244 °C. On to `COCC1=C(C(=O)OC)C(c2ccc(F)c(F)c2)N(C(=O)NCCCN2CCC(C)(c3ccccc3)CC2)C(=O)N1` (single isomer, unassigned; (+)) [Example 36, (+)-1,2,3,6-TETRAHYDRO-5-METHOXYCARBONYL-4-METHOXYMETHYL-2-OXO-1-{N-[3-(4-METHYL-4-PHENYL PIPERIDINE-1-YL]PROPYL}-6-(3,4-DIFLUOROPHENYL) PYRIMIDINE], for which the Kb in data set [6] was found to be 406 nM. For the compound `CCC1=C(C(N)=O)C(c2ccc(F)c(F)c2)N(C(=O)NCCCN2CCC3(CC2)OCc2ccccc23)C(=O)N1` (single isomer, unassigned; (+)) [Example 22, (+)-1,2,3,6-TETRAHYDRO-1-{N-[4-(BENZO-4′,5′(H)FURAN)PIPERIDIN-1-YL]PROPYL}CARBOXAMIDO-4-ETHYL-6-(3,4-DIFLUOROPHENYL)-2-OXO-PYRIMIDINE-5-CARBOXAMIDE HYDROCHLORIDE], the Kb in data set [6] stood at 40 nM. Same read-out and setting: for `COCC1=C(C(=O)OC)C(c2ccc(F)c(F)c2)N(C(=O)NCCCN2CCC(c3cc(F)ccc3OC)CC2)C(=O)N1` (single isomer, unassigned; (+)) [Example 15] the value was 289 nM; for `COC(=O)C1=C(C)NC(=O)N(C(=O)NCCCN2CCC3(CC2)C(=O)CCc2ccccc23)C1c1ccc(F)c(F)c1` (stereo not drawn) [Example 24], 102 nM. Turning to `COCC1=C(C(=O)OC)C(c2ccc(F)c(F)c2)N(C(=O)NCCCN2CCC(c3ccccn3)CC2)C(=O)N1` (single isomer, unassigned; (+)) [Example 17, (+)-6-(3,4-DIFLUOROPHENYL)-1-{N-[4-(2-PYRIDYL)PIPERIDIN-1-YL]-PROPYL}CARBOXAMIDO-5-METHOXYCARBONYL-4-METHOXYMETHYL-2-OXO-1,2,3,6-TETRAHYDROPYRIMIDINE DIHYDROCHLORIDE], the Kb in data set [6] was 373 nM. Turning to `COC(=O)C1=C(C)NC(=O)N(C(=O)NCCCN2CCC3(CC2)C(=O)CCc2ccccc23)C1c1ccc2nonc2c1` (stereo not drawn) [Example 23, HYDROCHLORIDE], the antagonist dissociation constant (Kb) in data set [6] is 68 nM. Take `COCC1=C(C(=O)OC)C(c2ccc(F)c(F)c2)N(C(=O)NCCCN2CCC(c3cc(F)c(F)c(F)c3)CC2)C(=O)N1` (single isomer, unassigned; (+)) [Example 33, (+)-1,2,3,6-TETRAHYDRO-1-{N-[4-(3,4,5-TRIFLUORO)-PHENYL-PIPERIDIN-1-YL]PROPYL}CARBOXAMIDO-4-METHOXYMETHYL-6-(3,4-DIFLUOROPHENYL)-2-OXOPYRIMIDINE-5-CARBOXYLIC ACID METHYL ESTER]: in data set [6], the Kb turned out to be 12 nM.
